We go through 8 molecules from PMC4955727 (Molecular bioSystems, 2016).

Where two headings read alike, the source gives them in different places.

For data set [1], the target named is T1, P-gp (Homo sapiens, UniProt P08183). Description: Rhodamine 123 efflux assay in KB CH^R 8-5 cells. As to conditions: for Rh123 % inhibition: 10 μM compound, 0.5 μg/ml rhodamine 123, 45 min, 37 °C.
Data set [2] has as its target T1, P-gp. Description: Calcein-AM efflux assay in KB CH^R 8-5 cells. As to conditions: for Calcein-AM Efflux % inhibition: 10 μM compound, 0.5 μM calcein-AM, 10 min, 37 °C; for P-gp efflux inhibitory activity (in words): calcein-AM and rhodamine 123 assays, 10 μM (Table 4).
Data set [3] concerns P-gp. As to conditions: cited from earlier work.
In data set [4] the target is T1, P-gp.
Data set [5] has as its target T1, P-gp. The data set is described as follows: in vitro.
A further data set relates to KB 3-1 cells. The data set is described as follows: MTT cytotoxicity of paclitaxel with or without reversal agent, parental cells. Type of data set: cell-based.
The next data set has as its system KB CH^R 8-5 cells. Type of data set: cell-based.
The test system of data set [6] is parental and P-gp overexpressing cell lines. Description: Cytotoxicity assay of quercetin and rutin alone. Type of data set: cell-based. The note with it: concentrations up to 10 μM, flavonoid alone.
Setting [7] is: read-out: Actual IC50 (Literature) (A), ref Literature (source not given).

T1 sequence (P08183 whole entry): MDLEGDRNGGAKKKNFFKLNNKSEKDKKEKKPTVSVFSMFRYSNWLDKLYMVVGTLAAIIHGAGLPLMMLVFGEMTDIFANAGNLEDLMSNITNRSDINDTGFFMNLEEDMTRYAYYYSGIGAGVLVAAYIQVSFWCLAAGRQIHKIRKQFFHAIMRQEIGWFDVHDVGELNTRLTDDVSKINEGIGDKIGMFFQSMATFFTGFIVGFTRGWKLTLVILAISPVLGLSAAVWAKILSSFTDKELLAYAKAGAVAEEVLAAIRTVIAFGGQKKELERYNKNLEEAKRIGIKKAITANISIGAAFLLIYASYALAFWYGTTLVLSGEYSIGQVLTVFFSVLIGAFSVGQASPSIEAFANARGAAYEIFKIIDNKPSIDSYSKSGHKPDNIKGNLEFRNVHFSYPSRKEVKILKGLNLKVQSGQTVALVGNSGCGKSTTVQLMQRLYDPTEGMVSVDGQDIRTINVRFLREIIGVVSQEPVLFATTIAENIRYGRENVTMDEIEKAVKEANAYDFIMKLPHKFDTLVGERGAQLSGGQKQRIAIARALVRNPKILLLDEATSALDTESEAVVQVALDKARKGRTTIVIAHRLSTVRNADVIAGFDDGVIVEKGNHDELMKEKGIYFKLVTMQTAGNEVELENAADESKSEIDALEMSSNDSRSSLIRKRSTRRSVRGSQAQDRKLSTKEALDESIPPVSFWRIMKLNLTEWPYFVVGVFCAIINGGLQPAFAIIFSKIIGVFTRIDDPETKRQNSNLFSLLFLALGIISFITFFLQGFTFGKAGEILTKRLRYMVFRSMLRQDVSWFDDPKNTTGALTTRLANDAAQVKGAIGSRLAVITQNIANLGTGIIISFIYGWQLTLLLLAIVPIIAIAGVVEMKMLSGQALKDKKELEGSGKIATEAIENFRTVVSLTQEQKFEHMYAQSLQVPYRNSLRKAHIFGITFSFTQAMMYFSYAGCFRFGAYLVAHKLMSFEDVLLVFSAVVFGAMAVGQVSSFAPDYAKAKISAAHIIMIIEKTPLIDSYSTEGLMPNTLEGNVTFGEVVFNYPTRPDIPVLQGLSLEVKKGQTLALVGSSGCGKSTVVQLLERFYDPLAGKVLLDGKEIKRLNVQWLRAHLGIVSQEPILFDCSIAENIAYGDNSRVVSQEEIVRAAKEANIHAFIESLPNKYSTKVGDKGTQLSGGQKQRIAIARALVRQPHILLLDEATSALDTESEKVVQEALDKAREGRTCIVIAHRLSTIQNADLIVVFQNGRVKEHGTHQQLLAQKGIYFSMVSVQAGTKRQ

By IC50 is commonly meant the concentration that gives 50% inhibition. On P-gp [1], `O=C(O[C@@H]1Cc2c(O)cc(O)cc2O[C@@H]1c1ccc(O)c(O)c1)c1cc(O)c(O)c(O)c1` [(-)-Epicatechin 3-gallate] showed a Rh123 % inhibition of 80.56%. Also, on P-gp [2], the “Calcein-AM Efflux % inhibition” value is listed as 83.25%. The half-inhibitory concentration (IC50) with P-gp [3] (setting [7]) is 15.1 µM. Besides, on P-gp [4], the IC50 turned out to be 33 µM and the “P-gp efflux inhibitory activity (in words)” value is “moderate inhibitory activity”.
As a reminder, the inhibition is the drop in the measured response relative to a control, in per cent. `COc1cc(-c2oc3cc(O)cc(O)c3c(=O)c2O)ccc1O` [Isorhamnetin] registered an inhibition at 10 µM against P-gp [5] of 19.5%. Moreover, the IC50 in the data set with P-gp [3] was 0.34 µM. Besides, the “P-gp efflux inhibitory activity (in words)” value on P-gp [4] was “low inhibitory activity”. Moreover, the “Calcein-AM Efflux % inhibition” value at P-gp [4] (human) is on record as 23.05%.
Consider `CC(=O)O[C@H]1C(=O)[C@@]2(C)[C@H]([C@H](OC(=O)c3ccccc3)[C@]3(O)C[C@H](OC(=O)[C@H](O)[C@@H](NC(=O)c4ccccc4)c4ccccc4)C(C)=C1C3(C)C)[C@]1(OC(C)=O)CO[C@@H]1C[C@@H]2O` [Paclitaxel], for which the IC50 in the data set on KB 3-1 cells (Homo sapiens, KB 3-1, read-out: IC50 ± SEM of paclitaxel) was 0.04 ± 0.01 µM; with KB CH^R 8-5 cells (read-out: IC50 ± SEM of paclitaxel) it was 2 ± 0.2 µM; in the data set with P-gp [3] (setting [7]), 1.2 µM. In addition, the “FR (fold-resistance)” value was “[1.0]” with KB 3-1 cells (KB 3-1, paclitaxel alone) and “[50.0]” in the data set with KB CH^R 8-5 cells (KB Ch^R 8-5, paclitaxel alone, vs KB 3-1).
Turning to `O=c1c(O)c(-c2ccc(O)c(O)c2)oc2cc(O)cc(O)c12` [Quercetin, 2-(3,4-dihydroxyphenyl)-3,5,7-trihydroxy-4H-chromen-4-one], in data set [6], the cell survival was more than 85%.
On the same count and under the same terms, the result for `C[C@@H]1O[C@@H](OC[C@H]2O[C@@H](Oc3c(-c4ccc(O)c(O)c4)oc4cc(O)cc(O)c4c3=O)[C@H](O)[C@@H](O)[C@@H]2O)[C@H](O)[C@H](O)[C@H]1O` [Rutin, 2-(3,4-dihydroxyphenyl)-5,7-dihydroxy-3-[α-L-rhamnopyranosyl-(1→6)-β-D-glucopyranosyloxy]-4H-chromen-4-one] reads more than 85%.
On to `COc1cc(C2Oc3cc([C@H]4Oc5cc(O)cc(O)c5C(=O)[C@@H]4O)ccc3OC2CO)ccc1O` (stereo partly drawn) [Silibinin], for which, at P-gp [5], 10 µM produced 71.4% inhibition. Also, on P-gp [2], the “Calcein-AM Efflux % inhibition” value was 63.75% and the “P-gp efflux inhibitory activity (in words)” value is recorded as “moderate inhibitory activity”. The IC50 in the data set on P-gp [3] (setting [7]) is 3.4 µM.
As for `COc1ccc(-c2cc(=O)c3c(OC)c(OC)c(OC)c(OC)c3o2)cc1` [Tangeritin], on P-gp [1], the Rh123 % inhibition amounted to 12.76%. In addition, on P-gp [2], the “Calcein-AM Efflux % inhibition” value is 14.23% and the “P-gp efflux inhibitory activity (in words)” value is given as “low inhibitory activity”. On P-gp [2] (10 μM concentration, both calcein-AM and rhodamine-123 assay data), the “inhibition in calcein-AM and rhodamine-123 assays” value is not above 15%. In the data set on P-gp [3] (setting [7]), the IC50 is 3 µM.
`O=c1c(O)cc([C@H]2Oc3cc(O)cc(O)c3C[C@H]2O)cc2c([C@H]3Oc4cc(O)cc(O)c4C[C@H]3O)cc(O)c(O)c12` [Theaflavine] yielded an inhibition at 45 min, 10 µM against P-gp [1] (human, KB CH^R 8-5 cells, probe rhodamine 123 (0.5 μg/ml)) of 83.2%. In addition, at P-gp [2], the IC50 was 20 µM and the “P-gp efflux inhibitory activity (in words)” value is listed as “very effective P-gp efflux inhibitory activity”. Moreover, at P-gp [2] (human, KB CH^R 8-5 cells), the inhibition at 10 min, 10 μM was 88.8%. Further, in the data set on P-gp [3] (setting [7]), the IC50 is 60 µM.
